In patent US9011965B2, “Gradient coating for biomedical applications” (Smith & Nephew, Inc., priority 2008, dated 2015):

Experiment: release of bupivacaine from coated samples in PBS, spectrophotometry at 265 nm
Assay type: physicochemical
Conditions: released from coated samples, 3 mL PBS, 37° C.
Method: The release of Ag, Ca, and Bupivacaine from the prepared coating was confirmed by ICP analysis and UV spectrometry, respectively. The coated samples were immersed in 3 mL PBS for 24 and 48 hours at 37° C. At each time point, the release of bupivacaine was measured spectrophotometrically (Nanodrop, Thermo) at 265 nm. The Bupivacaine standard was prepared by dissolving appropriate amounts of the drug in PBS. PBS was used as blank.

CCCCN1CCCCC1C(=O)Nc1c(C)cccc1C (centres unmarked) [Bupivacaine]
Bupivacaine Concentration in PBS (24 hours): 126 ppm
Bupivacaine Concentration in PBS (48 hours): 141 ppm
